Results on one compound are retold here after patent US20230113761A1, “METHOD AND COMPOSITION FOR MIMICKING BIOLOGICAL BENEFITS OF CALORIC RESTRICTION BY ADMINISTRATION OF B-AMINOISOBUTYRIC ACID” (NANJING NUTRABUILDING BIO-TECH CO., LTD., priority 2021, published 2023).

Experiment [1] is described as follows: Body weight and body composition (fat mass, lean mass, free water) of high-fat diet mice during 8 weeks of feeding intervention. Particulars: for fat mass: FIG. 2. The class given is in vivo. As for the experimental part: (§1) Mice were divided into groups and named after the diet they consumed. Group A mice were fed ad libitum (control), Group B mice were on high-fat diet (HFD), Group C mice were fed restricted amount of the HFD diet to achieve caloric restriction (HFD+CR), and Group D mice were fed high-fat diet and supplemented with 150 mg/kg β-aminoisobutyric acid (HFD+BAIBA). All groups of mice were housed individually, and fed for months of interventions and had free access to water. Health status was monitored during the intervention.
(§2) The four groups of mice were fed for eight weeks, body weight was measured weekly, and body fat mass, lean mass and free water mass were also measured by Body Composition Analyzer to monitor body composition every week. At the end of 8 weeks of treatment, blood was collected for each group of mice, and parameters such as total cholesterol (TCHO), triglyceride (TG), low-density lipoprotein (LDL) and high-density lipoprotein (HDL) were detected. Data were collected and subject to statistical analysis.

The nature of experiment [2]: Blood lipid parameters (TCHO, TG, LDL, HDL) of high-fat diet mice after 8 weeks of treatment. The experiment is classed as in vivo. As to conditions: group D (HFD+BAIBA, 150 mg/kg) vs group B (HFD). As for the experimental part: as §1, §2

With `CC(CN)C(=O)O` (stereo not drawn) [BAIBA, β-aminoisobutyric acid], the fat mass entry was “decreased compared to group B (HFD)” in experiment [1] (group D (HFD+BAIBA, 150 mg/kg) vs group B (HFD), 8 weeks, Body Composition Analyzer) and “less fat mass than group C (HFD+CR)” in experiment [1] (group D (HFD+BAIBA, 150 mg/kg) vs group C (HFD+CR), from week 5 of feeding intervention). Besides, the free water content entry in experiment [1] (group D (HFD+BAIBA, 150 mg/kg) vs group B (HFD), 8 weeks, FIG. 4) is recorded as “significantly higher than that in group B (HFD)”. The lean mass entry in experiment [1] (group D (HFD+BAIBA, 150 mg/kg) vs group C (HFD+CR), by the 8th week, FIG. 3) is given as “significantly more than that of group C (HFD+CR)”. Moreover, in experiment [1] (mice on high-fat diet supplemented with 150 mg/kg BAIBA (group D) vs group B (HFD), 8 weeks, measured weekly, FIG. 1), the body weight result is “significantly lower than that of group B (HFD)”. Also, the “total cholesterol (TCHO) level” value in experiment [2] (FIG. 5) was “significantly lower than that of group B (HFD) and close to that of group C”. In addition, the “triglyceride (TG) level” value in experiment [2] (FIG. 6) was “significantly lower than that of group B (HFD) and close to that of group C”. Besides, in experiment [2] (FIG. 7), the “low-density lipoprotein (LDL) level” value is “significantly lower than that of group B (HFD)”. Also, the “high-density lipoprotein (HDL) level” value in experiment [2] (four groups not significantly different, FIG. 8) was “higher HDL levles compared to group B (HFD)”.
